Reference: patent publication US7462600B2, “Macrolides” (Pfizer Inc, priority 2004, dated 2008)
≈ marks a conversion by molar mass, not a printed value.

Key:
Type in all cases: cell-based
[1] = tested on: Haemophilus influenzae 1218; experiment: MIC, microtiter broth dilution (NCCLS M100-S14), H. influenzae 1218 (susceptible); settings: Haemophilus influenzae 1218
In short: (§1)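 Broth microdilution MICs in microtiter trays, run and interpreted per NCCLS M100-S14. Compounds were dissolved in DMSO as 40 mg/ml stocks.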

[2] = tested on: Streptococcus pneumoniae 1095; settings: Streptococcus pneumoniae 1095; microtiter broth dilution
In short: as §1

[3] = tested on: Streptococcus pneumoniae 1175; settings: Streptococcus pneumoniae 1175; microtiter broth dilution
In short: as §1

[4] = tested on: Streptococcus pyogenes 1079; experiment: MIC, microtiter broth dilution (NCCLS M100-S14), S. pyogenes 1079 (ermB); settings: Streptococcus pyogenes 1079
In short: as §1

[5] = tested on: Streptococcus pneumoniae 1016; experiment: MIC, microtiter broth dilution (NCCLS M100-S14), S. pneumoniae 1016 (susceptible); settings: Streptococcus pneumoniae 1016
In short: as §1

SMILES	MIC H. influenzae 1218 [1] [µg/mL]	MIC S. pneumo. 1095 [2] [µg/mL]	MIC S. pneumo. 1175 [3] [µg/mL]	MIC S. pyogenes 1079 [4] [µg/mL]	MIC S. pneumo. 1016 [5] [µg/mL]
CCC1OC(=O)C(C)C(=O)C(C)C(OC2OC(C)CC(N(C)C)C2O)C(C)(OC)CC(C)C(=O)C(C)C2N(C3CN(S(=O)(=O)c4c(C)noc4C)C3)C(=O)OC12C (stereo not drawn) [Example 3.32, 3,5-dimethylisoxazole-4-sulfonyl]	2 (≈ 2.42 µM)	0.5 (≈ 0.605 µM)	0.12 (≈ 0.145 µM)	32 (≈ 38.7 µM)	<0.06
CCC1OC(=O)C(C)C(=O)C(C)C(OC2OC(C)CC(N(C)C)C2O)C(C)(OC)CC(C)C(=O)C(C)C2N(C3CN(S(=O)(=O)c4ccc(-c5ccon5)s4)C3)C(=O)OC12C (stereo not drawn) [Example 3.33, 3-descladinosyl-11,12-dideoxy-6-O-methyl-3-oxo-12,11-(1-(oxycarbonyl-(5-(isoxazol-3-yl)thiophene-2-sulfonyl)-azetidin-3-yl)-imino)-erythromycin A]	0.5 (≈ 0.567 µM)	<0.06	<0.06	8 (≈ 9.08 µM)	<0.06
CCC1OC(=O)C(C)C(=O)C(C)C(OC2OC(C)CC(N(C)C)C2O)C(C)(OC)CC(C)C(=O)C(C)C2N(C3CN(S(=O)(=O)c4ccc(Oc5ccccn5)cc4)C3)C(=O)OC12C (stereo not drawn) [Example 3.34, 4-(pyridin-2-yloxy)benzenesulfonyl]	16 (≈ 17.8 µM)	1 (≈ 1.11 µM)	0.12 (≈ 0.133 µM)	64 (≈ 71 µM)	<0.06
CCC1OC(=O)C(C)C(=O)C(C)C(OC2OC(C)CC(N(C)C)C2O)C(C)(OC)CC(C)C(=O)C(C)C2N(C3CN(S(=O)(=O)c4cccc(-c5cnco5)c4)C3)C(=O)OC12C (stereo not drawn) [Example 3.35, 3-descladinosyl-11,12-dideoxy-6-O-methyl-3-oxo-12,11-(oxycarbonyl-(1-(3-(oxazol-5-yl)benzenesulfonyl)-azetidin-3-yl)-imino)-erythromycin A]	0.12 (≈ 0.137 µM)	<0.06	<0.06	1 (≈ 1.14 µM)	<0.06
CCC1OC(=O)C(C)C(=O)C(C)C(OC2OC(C)CC(N(C)C)C2O)C(C)(OC)CC(C)C(=O)C(C)C2N(C3CN(S(=O)(=O)c4cccc(-c5cc[nH]n5)c4)C3)C(=O)OC12C (stereo not drawn) [Example 3.36, 3-descladinosyl-11,12-dideoxy-6-O-methyl-3-oxo-12,11-(oxycarbonyl-(1-(3-(1H-pyrazol-3-yl)benzenesulfonyl)-azetidin-3-yl)-imino)-erythromycin A]	0.25 (≈ 0.286 µM)	<0.06	<0.06	1 (≈ 1.14 µM)	<0.06
CCC1OC(=O)C(C)C(=O)C(C)C(OC2OC(C)CC(N(C)C)C2O)C(C)(OC)CC(C)C(=O)C(C)C2N(C3CN(S(=O)(=O)c4cccnc4OC)C3)C(=O)OC12C (stereo not drawn) [Example 3.37, 2-methoxypyridine-3-sulfonyl]	0.5 (≈ 0.596 µM)	4 (≈ 4.77 µM)	<0.06	16 (≈ 19.1 µM)	<0.06
CCC1OC(=O)C(C)C(=O)C(C)C(OC2OC(C)CC(N(C)C)C2O)C(C)(OC)CC(C)C(=O)C(C)C2N(C3CN(S(=O)(=O)c4ccc(OC)nc4)C3)C(=O)OC12C (stereo not drawn) [Example 3.38, 6-methoxypyridine-3-sulfonyl]	0.5 (≈ 0.596 µM)	1 (≈ 1.19 µM)	<0.06	64 (≈ 76.3 µM)	<0.06
CCC1OC(=O)C(C)C(=O)C(C)C(OC2OC(C)CC(N(C)C)C2O)C(C)(OC)CC(C)C(=O)C(C)C2N(C3CN(S(=O)(=O)c4ccc(-c5ccn[nH]5)cc4)C3)C(=O)OC12C (stereo not drawn) [Example 3.39, 3-descladinosyl-11,12-dideoxy-6-O-methyl-3-oxo-12,11-(oxycarbonyl-(1-(4-(1H-pyrazol-5-yl)benzenesulfonyl)-azetidin-3-yl)-imino)-erythromycin A]	0.5 (≈ 0.572 µM)	<0.06	<0.06	0.25 (≈ 0.286 µM)	<0.06
CCC1OC(=O)C(C)C(=O)C(C)C(OC2OC(C)CC(N(C)C)C2O)C(C)(OC)CC(C)C(=O)C(C)C2N(C3CN(S(=O)(=O)c4cccc(-c5cc(C)no5)c4)C3)C(=O)OC12C (stereo not drawn) [Example 3.40, 3-descladinosyl-11,12-dideoxy-6-O-methyl-3-oxo-12,11-(oxycarbonyl-1(-(3-(3-methylisoxazol-5-yl)benzenesulfonyl)-azetidin-3-yl)-imino)-erythromycin A]	2 (≈ 2.25 µM)	<0.06	<0.06	4 (≈ 4.5 µM)	<0.06
CCC1OC(=O)C(C)C(=O)C(C)C(OC2OC(C)CC(N(C)C)C2O)C(C)(OC)CC(C)C(=O)C(C)C2N(C3CN(S(=O)(=O)c4cccc(-c5ncon5)c4)C3)C(=O)OC12C (stereo not drawn) [Example 3.41, 3-descladinosyl-11,12-dideoxy-6-O-methyl-3-oxo-12,11-(oxycarbonyl-(1-(3-(1,2,4-oxadiazol-3-yl)benzenesulfonyl)-azetidin-3-yl)-imino)-erythromycin A]	0.25 (≈ 0.285 µM)	<0.06	<0.06	8 (≈ 9.13 µM)	<0.06
CCC1OC(=O)C(C)C(=O)C(C)C(OC2OC(C)CC(N(C)C)C2O)C(C)(OC)CC(C)C(=O)C(C)C2N(C3CN(S(=O)(=O)c4ccc5c(c4)CC(=O)N5)C3)C(=O)OC12C (stereo not drawn) [Example 3.42, 3-descladinosyl-11,12-dideoxy-6-O-methyl-3-oxo-12,11-(oxycarbonyl-(1-(2-oxoindoline-5-sulfonyl)-azetidin-3-yl)-imino)-erythromycin A]	2 (≈ 2.32 µM)	<0.06	0.5 (≈ 0.579 µM)	2 (≈ 2.32 µM)	<0.06
CCC1OC(=O)C(C)C(=O)C(C)C(OC2OC(C)CC(N(C)C)C2O)C(C)(OC)CC(C)C(=O)C(C)C2N(C3CN(S(=O)(=O)c4ccc5oc(=O)[nH]c5c4)C3)C(=O)OC12C (stereo not drawn) [Example 3.43, 3-descladinosyl-11,12-dideoxy-6-O-methyl-3-oxo-12,11-(oxycarbonyl-(1-(2,3-dihydro-2-oxobenzo[d]oxazole-5-sulfonyl)-azetidin-3-yl)-imino)-erythromycin A]	0.5 (≈ 0.578 µM)	<0.06	0.5 (≈ 0.578 µM)	1 (≈ 1.16 µM)	<0.06
CCC1OC(=O)C(C)C(=O)C(C)C(OC2OC(C)CC(N(C)C)C2O)C(C)(OC)CC(C)C(=O)C(C)C2N(C3CN(S(=O)(=O)c4ccc(-n5cccn5)cc4)C3)C(=O)OC12C (stereo not drawn) [Example 3.44, 3-descladinosyl-11,12-dideoxy-6-O-methyl-3-oxo-12,11-(oxycarbonyl-(1-(4-(1H-pyrazol-1-yl)benzenesulfonyl)-azetidin-3-yl)-imino)-erythromycin A]	0.25 (≈ 0.286 µM)	<0.06	<0.06	0.12 (≈ 0.137 µM)	<0.06
CCC1OC(=O)C(C)C(=O)C(C)C(OC2OC(C)CC(N(C)C)C2O)C(C)(OC)CC(C)C(=O)C(C)C2N(C3CN(S(=O)(=O)c4ccc(-c5csnn5)cc4)C3)C(=O)OC12C (stereo not drawn) [Example 3.45, 3-descladinosyl-11,12-dideoxy-6-O-methyl-3-oxo-12,11-(oxycarbonyl-(1-(4-(1,2,3-thiadiazol-4-yl)benzenesulfonyl)-azetidin-3-yl)-imino)-erythromycin A]	0.25 (≈ 0.28 µM)	<0.06	<0.06	0.12 (≈ 0.135 µM)	<0.06
CCC1OC(=O)C(C)C(=O)C(C)C(OC2OC(C)CC(N(C)C)C2O)C(C)(OC)CC(C)C(=O)C(C)C2N(C3CN(S(=O)(=O)c4ccc(N5CCOCC5)c(F)c4)C3)C(=O)OC12C (stereo not drawn) [Example 3.46, 3-fluoro-4-morpholinobenzenesulfonyl]	2 (≈ 2.2 µM)	0.5 (≈ 0.549 µM)	<0.06	32 (≈ 35.1 µM)	<0.06
CCC1OC(=O)C(C)C(=O)C(C)C(OC2OC(C)CC(N(C)C)C2O)C(C)(OC)CC(C)C(=O)C(C)C2N(C3CN(S(=O)(=O)c4ccc(-n5nc(C)cc5C)cc4)C3)C(=O)OC12C (stereo not drawn) [Example 3.47, 4-(3,5-dimethyl-1H-pyrazol-1-yl)benzenesulfonyl]	8 (≈ 8.87 µM)	0.5 (≈ 0.554 µM)	<0.06	64 (≈ 70.9 µM)	<0.06
CCC1OC(=O)C(C)C(=O)C(C)C(OC2OC(C)CC(N(C)C)C2O)C(C)(OC)CC(C)C(=O)C(C)C2N(C3CN(S(=O)(=O)c4ccc(C#N)nc4)C3)C(=O)OC12C (stereo not drawn) [Example 3.48, 6-cyanopyridine-3-sulfonyl]	0.5 (≈ 0.6 µM)	1 (≈ 1.2 µM)	<0.06	>64.00	<0.06
CCC1OC(=O)C(C)C(=O)C(C)C(OC2OC(C)CC(N(C)C)C2O)C(C)(OC)CC(C)C(=O)C(C)C2N(C3CN(S(=O)(=O)c4cccc5c(C#N)cccc45)C3)C(=O)OC12C (stereo not drawn) [Example 3.49]	0.5 (≈ 0.566 µM)	<0.06	<0.06	0.5 (≈ 0.566 µM)	<0.06
